US20220267269A1, “COMPOUNDS FOR THE MODULATION OF PROPROTEIN CONVERTASE SUBTILISIN/KEXIN TYPE 9 (PCSK9)” (SRX Cardio, LLC, priority 2019, published 2022)

What was measured:
[1] = target: T1, PCSK9 (Homo sapiens, UniProt Q8NBP7); assay: Fluorescent-LDL uptake analysis by flow cytometric analysis; format: cell-based
T1 construct: purchased Cayman Chemical 20631
Method: Cells, such as HuH7, FL83B, or a cell line transfected with a short-hairpin PCSK9 knockdown sequence such as HuH7/shPCSK9 or FL83B/shPCSK9 were plated and cultured at 37° C. for 12-24 h. Culture media was removed and replaced with fresh lipoprotein-depleted culture media supplemented with 5 μg/mL of fluorescently labeled LDL or lipoprotein-depleted culture media supplemented with 5 μg/mL of fluorescently labeled LDL plus a concentration of recombinant PCSK9 (for example 5 μg/mL recombinant PCSK9; Cayman Chemical, Cat. #20631). Examples of fluorescently labeled LDL include: DiI-LDL (Kalen Biomedical), or LDL conjugated to Dylight (e.g., LDL-Dylight 488, or LDL-Dylight 550 (Cayman Chemical, Cat. #10011229)). Lipoprotein-depleted culture media was composed of DMEM (Invitrogen) with 10% lipoprotein-depleted fetal bovine serum (Kalen Biomedical) and supplemented with penicillin-streptomycin (Life Technologies). Cells were dosed with small molecule test compounds at doses ranging from 0 nM to 100 μM, following a protocol adapted from Benjannet et al., “Effects of the prosegment and pH on the activity of PCSK9: evidence for additional processing events” J Biol Chem. 285(52):40965-40978 (2010), which is incorporated by reference in its entirety.
Following an incubation period of specified length, such as 16 hours, the lipoprotein-depleted media was removed and cells rinsed three times with a rinse solution (Dulbecco's phosphate buffered saline (D-PBS, Life Technologies), supplemented with 0.5% bovine serum albumin (BSA, Sigma) and 1 g/L glucose (Sigma)). The fluid was then removed, and cells are released from the plate using TrypLE Express (Life Technologies) per manufacturer's recommended procedures, such as incubation for 5-10 minutes at 37° C. The TyrpLE-Cell suspension was then transferred to 15 mL conical tubes, volume was increased to 2 mL with D-PBS supplemented with 0.5% BSA, and […], and the tubes were centrifuged at 250×gravity for 10 minutes. Following centrifugation, the supernatant was aspirated and the cell pellet was resuspended in 300 μL PBS and counterstained with 4′,6-diamidino-2-phenylindole (DAPI, Cayman Chemical) as a cell viability marker, other cell viability markers such as 7-aminoactinomycin D (7AAD, Life Technologies) have also been described in the art.
Cells were analyzed by for both 7AAD (dead cells) and fluorescent LDL in live cells using a flow cytometer per the manufacturer's operating manual. Cells incubated with small molecule compounds that are inhibitors of PCSK9 will be expected to show increased amounts of LDL fluorescence, relative to control (no compound) specimens, and cells incubated with small molecule compounds that are activators of PCSK9 will be expected to show decreased amounts of LDL fluorescence relative to control (no compound) specimens.
The LDL-uptake EC50 is provided as follows: +++: <0.5 μM; ++: 0.5-1μM; +: >1 μM.

[2] = In vivo PK in mice (IV and PO); settings: male, C57BL/6, mouse, plasma
Method: (§1) A representative compound (Compound 1041) was tested for oral bioavailability and efficacy in mice. Male C57BL/6 mice were purchased from Taconic Biosciences (Rensselaer, New York) and housed under standard conditions with the exception of being provided a high fat diet (#TD.90221, Envigo, Madison, Wis.) and water ad libitum. Following 4 weeks of diet acclimation the animals were then dosed with compound or vehicle as control specimens. Compound readily dissolved at 1.5 mg/ml in a 1% Tween-80 aqueous solution with 10-15 minutes sonication. This solution was used at the 1.5 mg/ml concentration for oral (PO) dosing or further diluted with sterile saline for intravenous (IV) dosing.
Test animals received a single dose at 3 mg/kg by IV or 15 mg/kg by PO while control animals received an equal volume of vehicle control by IV or PO, respectively. Plasma samples were collected at 0.25, […], 1, 2, 3, 6, 8, 24, and 48 hours while liver specimens were collected at 8, 24, and 48 hours and drug concentration were measured by LC-MS/MS per standard protocols.
In brief, blood was immediately centrifuged, and the resulting plasma was frozen and stored at −80° C. until analysis. […] Compound concentrations were determined by a liquid chromatography-mass tandem spectrometry (LC-MS/MS) per routine method (Quintara Discovery, Hayward, Calif.) following the standard protocol. […]

[3] = tested on: Male C57BL/6 mice; assay: Liver panel in high fat diet mice; format: in vivo
Method: as §1
To assess animal health following compound exposure, a liver panel (Test Code #60405) was tested by IDEXX BioAnalytics (North Grafton, Mass.). […] Also of note, AST and ALT levels in the liver panel were elevated in the PO vehicle, which is attributed to the high fat diet used in the study (Envigo, #TD.90221).

[4] = Dissolution in dosing vehicle; format: physicochemical; settings: 1% Tween-80 aqueous solution, 10-15 minutes sonication
Method: as §1

[5] = daily 15 mg/kg PO, 72-hour group, versus vehicle control

T1 sequence (Q8NBP7 153-692): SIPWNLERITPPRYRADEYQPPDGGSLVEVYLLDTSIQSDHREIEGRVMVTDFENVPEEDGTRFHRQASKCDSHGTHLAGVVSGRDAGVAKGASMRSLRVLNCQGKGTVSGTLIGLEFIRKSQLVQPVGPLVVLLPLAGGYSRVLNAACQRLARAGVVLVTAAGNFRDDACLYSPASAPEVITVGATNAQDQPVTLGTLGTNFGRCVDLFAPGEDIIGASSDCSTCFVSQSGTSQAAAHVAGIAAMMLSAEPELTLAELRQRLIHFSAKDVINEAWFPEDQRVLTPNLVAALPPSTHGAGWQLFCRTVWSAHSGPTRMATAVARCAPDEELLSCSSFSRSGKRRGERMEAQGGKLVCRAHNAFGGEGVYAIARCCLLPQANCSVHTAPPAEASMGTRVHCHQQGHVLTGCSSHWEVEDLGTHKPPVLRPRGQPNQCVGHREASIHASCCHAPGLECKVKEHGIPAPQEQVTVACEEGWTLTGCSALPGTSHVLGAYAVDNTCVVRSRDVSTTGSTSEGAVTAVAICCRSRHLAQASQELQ

Compound: Cc1cc(-c2ccc(F)cc2)ccc1C1CCCN(C2CCCC2)C1 (stereo not shown) [Compound 1,041, 1-cyclopentyl-3-(4′-fluoro-3-methyl-[1,1′-biphenyl]-4-yl)piperidine]
- EC50 [1]: 500 to 1000 nM
- half-life ([2]; IV 3 mg/kg): 4.8 h
- half-life ([2]; PO 15 mg/kg): 9.8 h
- reduction in ALT levels [3, 5]: 77.7%
- reduction in AST levels [3, 5]: 72.1%
- liver panel toxicity ([3]; three daily 15 mg/kg PO doses, 72 hours, versus PO vehicle): no overt toxicity
- dissolved concentration [4]: ≥ 1.5 mg/mL
